From patent publication US9334286B2, “Pharmacologically active compounds” (Cancer Research Technology Limited, priority 2012, dated 2016)

Molecular target: full length MPS1 (Homo sapiens (Human), UniProt P33981)
Test: Measurement of inhibition of MPS1 kinase (Caliper EZ reader, fluorescent labelled peptide H236)
Assay type: biochemical
Conditions: full length MPS1 12.5 nM or 3 nM, peptide H236 5 μM, ATP 10 μM, 60 min at room temperature
Description: The reaction was carried out for 60 min at room temperature and stopped by the addition of buffer (10 μl) containing 20 mM EDTA, 0.05% (v/v) Brij-35, in 0.1M HEPES-buffered saline (Free acid, Sigma, UK). The plate was read on a Caliper EZ reader II (Caliper Life Sciences).
The reader provides a Software package (‘Reviewer’) which converts the peak heights into % conversion by measuring both product and substrate peak and also allows selection of control well which represent 0% and 100% inhibition respectively. The % inhibition of the compounds is calculated relative to the means of selected control wells. IC50s are determined by testing the compounds at a range of concentrations from 0.25 nM-100 μM. The % inhibitions at each concentration are then fitted to a 4 parameter logistic fit: y=(a+((b−a)/(1+((c/x^d)))) where a=asym min, b=asym max, c=IC50 and d=hill coefficient

full length MPS1, sequence (P33981 whole entry): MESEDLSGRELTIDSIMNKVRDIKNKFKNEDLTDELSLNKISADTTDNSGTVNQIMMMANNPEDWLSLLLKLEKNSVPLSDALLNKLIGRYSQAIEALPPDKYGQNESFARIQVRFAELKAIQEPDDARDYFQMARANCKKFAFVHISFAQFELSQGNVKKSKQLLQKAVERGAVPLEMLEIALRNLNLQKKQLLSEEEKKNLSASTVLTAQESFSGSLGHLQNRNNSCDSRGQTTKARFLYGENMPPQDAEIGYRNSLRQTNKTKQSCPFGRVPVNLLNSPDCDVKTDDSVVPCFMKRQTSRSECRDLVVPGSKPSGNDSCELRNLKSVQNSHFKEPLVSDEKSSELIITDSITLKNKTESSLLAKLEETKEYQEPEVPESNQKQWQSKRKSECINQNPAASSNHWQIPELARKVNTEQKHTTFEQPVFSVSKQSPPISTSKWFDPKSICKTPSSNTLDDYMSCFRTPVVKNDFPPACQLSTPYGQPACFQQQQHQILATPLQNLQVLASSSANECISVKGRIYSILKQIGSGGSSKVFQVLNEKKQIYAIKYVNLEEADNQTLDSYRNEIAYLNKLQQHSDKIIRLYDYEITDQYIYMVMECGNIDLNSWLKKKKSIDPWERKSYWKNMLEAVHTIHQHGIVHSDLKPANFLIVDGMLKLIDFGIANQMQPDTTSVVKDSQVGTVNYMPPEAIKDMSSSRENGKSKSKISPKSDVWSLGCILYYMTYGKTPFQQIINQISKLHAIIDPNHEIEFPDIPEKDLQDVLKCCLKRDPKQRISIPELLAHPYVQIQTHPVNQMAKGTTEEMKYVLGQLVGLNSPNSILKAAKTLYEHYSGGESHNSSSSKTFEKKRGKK

`COCc1c(-c2ccc(Nc3cc4cc(-c5cnn(CC(C)(C)O)c5)ccc4cn3)c(OC)c2)cnn1C` [Example 51, 1-(4-(3-(2-Methoxy-4-(5-(methoxymethyl)-1-methyl-1H-pyrazol-4-yl)phenylamino)isoquinolin-6-yl)-1H-pyrazol-1-yl)-2-methylpropan-2-ol] and `COc1cc(-c2cnn(C)c2C)ccc1Nc1cc2cc(-c3cnn(CC(C)(C)O)c3)ccc2cn1` [Example 53, 1-(4-(3-(4-(1,5-Dimethyl-1H-pyrazol-4-yl)-2-methoxyphenylamino)isoquinolin-6-yl)-1H-pyrazol-1-yl)-2-methylpropan-2-ol] are the same in IC50: 4 nM for the first, 4 nM for the second.

Compared with `COc1cc(-c2cnn(C)c2)ccc1Nc1cc2cc(-c3cnn(CC(C)(C)O)c3)ccc2cn1` [Example 52, 1-(4-(3-(2-Methoxy-4-(1-methyl-1H-pyrazol-4-yl)phenylamino)isoquinolin-6-yl)-1H-pyrazol-1-yl)-2-methylpropan-2-ol], `COc1cc(-c2ncnn2C)ccc1Nc1cc2cc(-c3cnn(CC(C)(C)O)c3)ccc2cn1` [Example 64, 1-(4-(3-((2-Methoxy-4-(1-methyl-1H-1,2,4-triazol-5-yl)phenyl)amino)isoquinolin-6-yl)-1H-pyrazol-1-yl)-2-methylpropan-2-ol] is 4-fold lower in IC50: 4 nM for the first, 1 nM for the second. The second is the more potent here.

Compared with `COc1cc(F)ccc1Nc1cc2cc(-c3cnn(CC(C)(C)O)c3)ccc2cn1` [Example 54, 1-(4-(3-(4-Fluoro-2-methoxyphenylamino)isoquinolin-6-yl)-1H-pyrazol-1-yl)-2-methylpropan-2-ol], `COc1cc(C(=O)N(C)C)ccc1Nc1cc2cc(-c3cnn(CC(C)(C)O)c3)ccc2cn1` [Example 60, 4-((6-(1-(2-Hydroxy-2-methylpropyl)-1H-pyrazol-4-yl)isoquinolin-3-yl)amino)-3-methoxy-N,N-dimethylbenzamide] is 32-fold lower in IC50: 65 nM for the first, 2 nM for the second.

Compared with `COc1cc(-c2nnc3n2CCN(C(=O)OC(C)(C)C)C3)ccc1Nc1cc2cc(-c3cnn(CC(C)(C)O)c3)ccc2cn1` [Example 55, tert-Butyl 3-(4-(6-(1-(2-hydroxy-2-methylpropyl)-1H-pyrazol-4-yl)isoquinolin-3-ylamino)-3-methoxyphenyl)-5,6-dihydro-[1,2,4]triazolo[4,3-a]pyrazine-7(8H)-carboxylate], `COc1cc(-c2nnc3n2CCN(C)C3)ccc1Nc1cc2cc(-c3cnn(CC(C)(C)O)c3)ccc2cn1` [Example 70, 1-(4-(3-((2-Methoxy-4-(7-methyl-5,6,7,8-tetrahydro-[1,2,4]triazolo[4,3-a]pyrazin-3-yl)-phenyl)amino)isoquinolin-6-yl)-1H-pyrazol-1-yl)-2-methylpropan-2-ol] is 1.5-fold lower in IC50: 3 nM for the first, 2 nM for the second.

`COc1nc(-c2cnc(C)n2C)ccc1Nc1cc2cc(-c3cnn(CC(C)(C)O)c3)ccc2cn1` [Example 56, 1-(4-(3-(6-(1,2-Dimethyl-1H-imidazol-5-yl)-2-methoxypyridin-3-ylamino)isoquinolin-6-yl)-1H-pyrazol-1-yl)-2-methylpropan-2-ol] and `COc1cc(-c2cnc(C)n2C)cnc1Nc1cc2cc(-c3cnn(CC(C)(C)O)c3)ccc2cn1` [Example 57, 1-(4-(3-((5-(1,2-Dimethyl-1H-imidazol-5-yl)-3-methoxypyridin-2-yl)amino)isoquinolin-6-yl)-1H-pyrazol-1-yl)-2-methylpropan-2-ol] are the same in IC50: 3 nM for the first, 3 nM for the second.

Going from `CC(C)(O)Cn1cc(-c2ccc3cnc(Nc4ccc(-c5cncnc5)cc4Cl)cc3c2)cn1` [Example 58, 1-(4-(3-((2-Chloro-4-(pyrimidin-5-yl)phenyl)amino)isoquinolin-6-yl)-1H-pyrazol-1-yl)-2-methylpropan-2-ol] to `Cc1nnc(-c2ccc(Nc3cc4cc(-c5cnn(CC(C)(C)O)c5)ccc4cn3)c(Cl)c2)o1` [Example 77, 1-(4-(3-((2-Chloro-4-(5-methyl-1,3,4-oxadiazol-2-yl)phenyl)amino)isoquinolin-6-yl)-1H-pyrazol-1-yl)-2-methylpropan-2-ol], the IC50 rises from 5 nM to 23 nM (4.6-fold).

`CC(C)(O)Cn1cc(-c2ccc3cnc(Nc4ccc(S(C)(=O)=O)cc4Cl)cc3c2)cn1` [Example 59, 1-(4-(3-((2-Chloro-4-(methylsulfonyl)phenyl)amino)isoquinolin-6-yl)-1H-pyrazol-1-yl)-2-methylpropan-2-ol] and `COc1cc(S(=O)(=O)N(C)C)ccc1Nc1cc2cc(-c3cnn(CC(C)(C)O)c3)ccc2cn1` [Example 80, 4-((6-(1-(2-Hydroxy-2-methylpropyl)-1H-pyrazol-4-yl)isoquinolin-3-yl)amino)-3-methoxy-N,N-dimethylbenzenesulfonamide] are within 1.5-fold of each other in IC50: 4 nM for the first, 3 nM for the second.

Going from `COc1cc(C(=O)NCCO)ccc1Nc1cc2cc(-c3cnn(CC(C)(C)O)c3)ccc2cn1` [Example 61, 4-((6-(1-(2-Hydroxy-2-methylpropyl)-1H-pyrazol-4-yl)isoquinolin-3-yl)amino)-N-(2-hydroxyethyl)-3-methoxybenzamide] to `COCCNC(=O)c1ccc(Nc2cc3cc(-c4cnn(CC(C)(C)O)c4)ccc3cn2)c(OC)c1` [Example 62, 4-((6-(1-(2-Hydroxy-2-methylpropyl)-1H-pyrazol-4-yl)isoquinolin-3-yl)amino)-3-methoxy-N-(2-methoxyethyl)benzamide], the IC50 rises from 2 nM to 3 nM (1.5-fold). The first is the more potent here.

First: COCc1ncc(-c2ccc(Nc3cc4cc(-c5cnn(CC(C)(C)O)c5)ccc4cn3)c(OC)c2)n1C [Example 63, 1-(4-(3-((2-Methoxy-4-(2-(methoxymethyl)-1-methyl-1H-imidazol-5-yl)phenyl)amino)-isoquinolin-6-yl)-1H-pyrazol-1-yl)-2-methylpropan-2-ol]
Second: COc1cc(-c2cnc(C#N)n2C)ccc1Nc1cc2cc(-c3cnn(CC(C)(C)O)c3)ccc2cn1 [Example 84, 5-(4-((6-(1-(2-Hydroxy-2-methylpropyl)-1H-pyrazol-4-yl)isoquinolin-3-yl)amino)-3-methoxyphenyl)-1-methyl-1H-imidazole-2-carbonitrile]
The IC50 of the first is 5-fold lower: 1 nM for the first, 5 nM for the second.

`COc1cc(C(=O)N2CCS(=O)(=O)CC2)ccc1Nc1cc2cc(-c3cnn(CC(C)(C)O)c3)ccc2cn1` [Example 65, (1,1-Dioxidothiomorpholino)(4-((6-(1-(2-hydroxy-2-methylpropyl)-1H-pyrazol-4-yl)isoquinolin-3-yl)amino)-3-methoxyphenyl)methanone] and `COc1cc(C(=O)N2CCN(C)CC2)ccc1Nc1cc2cc(-c3cnn(CC(C)(C)O)c3)ccc2cn1` [Example 66] are the same in IC50: 2 nM for the first, 2 nM for the second.

`COc1cc(C(=O)NC2CCN(C)CC2)ccc1Nc1cc2cc(-c3cnn(CC(C)(C)O)c3)ccc2cn1` [Example 67, 4-((6-(1-(2-Hydroxy-2-methylpropyl)-1H-pyrazol-4-yl)isoquinolin-3-yl)amino)-3-methoxy-N-(1-methylpiperidin-4-yl)benzamide] and `COCC1CN(C(=O)c2ccc(Nc3cc4cc(-c5cnn(CC(C)(C)O)c5)ccc4cn3)c(OC)c2)C1` [Example 86, (4-((6-(1-(2-Hydroxy-2-methylpropyl)-1H-pyrazol-4-yl)isoquinolin-3-yl)amino)-3-methoxy-phenyl)(3-(methoxymethyl)azetidin-1-yl)methanone] are within 1.5-fold of each other in IC50: 5 nM for the first, 7 nM for the second.

`COc1cc(-c2cnc(C)n2CC(C)(C)O)ccc1Nc1cc2cc(-c3cnn(CC(C)(C)O)c3)ccc2cn1` [Example 69, 1-(5-(4-((6-(1-(2-Hydroxy-2-methylpropyl)-1H-pyrazol-4-yl)isoquinolin-3-yl)amino)-3-methoxy-phenyl)-2-methyl-1H-imidazol-1-yl)-2-methylpropan-2-ol] and `COC1CN(C(=O)c2ccc(Nc3cc4cc(-c5cnn(CC(C)(C)O)c5)ccc4cn3)c(OC(F)F)c2)C1` [Example 91, (3-(Difluoromethoxy)-4-(6-(1-(2-hydroxy-2-methylpropyl)-1H-pyrazol-4-yl)isoquinolin-3-ylamino)phenyl)(3-methoxyazetidin-1-yl)methanone] are the same in IC50: 2 nM for the first, 2 nM for the second.

`COCCn1cc(-c2ccc3cnc(Nc4ccc(C(=O)N5CC(OC)C5)cc4OC)cc3c2)cn1` [Example 72, (3-Methoxy-4-((6-(1-(2-methoxyethyl)-1H-pyrazol-4-yl)isoquinolin-3-yl)amino)phenyl)(3-methoxyazetidin-1-yl)methanone] and `COc1cc(C(=O)N2CC(OC)C2)ccc1Nc1cc2cc(-c3cnn(CC(C)(C)OC)c3)ccc2cn1` [Example 74, (3-Methoxy-4-((6-(1-(2-methoxy-2-rnethylpropyl)-1H-pyrazol-4-yl)isoquinolin-3-yl)amino)-phenyl)(3-methoxyazetidin-1-yl)methanone] are the same in IC50: 3 nM for the first, 3 nM for the second.

`COc1cc(C(=O)N2CC(OC)C2)ccc1Nc1cc2cc(-c3cnn(CC4(O)CCC4)c3)ccc2cn1` [Example 87, (4-((6-(1-((1-Hydroxycyclobutyl)methyl)-1H-pyrazol-4-yl)isoquinolin-3-yl)amino)-3-methoxy-phenyl)(3-methoxyazetidin-1-yl)methanone] and `CCOc1cc(-c2nncn2C)ccc1Nc1cc2cc(-c3cnn(CC4(O)CCC4)c3)ccc2cn1` [Example 88, 1-((4-(3-((2-Ethoxy-4-(4-methyl-4H-1,2,4-triazol-3-yl)phenyl)amino)isoquinolin-6-yl)-1H-pyrazol-1-yl)methyl)cyclobutanol] are within 1.5-fold of each other in IC50: 8 nM for the first, 7 nM for the second.

First: COc1cc(-c2cnc(C)n2C)ccc1Nc1cc2cc(C(=O)N(C)C)ccc2cn1 [Example 89, 3-((4-(1,2-Dimethyl-1H-imidazol-5-yl)-2-methoxyphenyl)amino)-N,N-dimethylisoquinoline-6-carboxamideone]
Second: CNC(=O)c1ccc2cnc(Nc3ccc(-c4cnc(C)n4C)cc3OC)cc2c1 [Example 90, 3-((4-(1,2-Dimethyl-1H-imidazol-5-yl)-2-methoxyphenyl)amino)-N-methylisoquinoline-6-carboxamide]
The IC50 of the first is 94-fold higher: 472 nM for the first, 5 nM for the second. The second is the more potent here.
